From patent US12084445B2, “Broad-spectrum carbapenems” (VenatoRx Pharmaceuticals, Inc., priority 2018, dated 2024)
Where two headings read alike, the source gives them in different places.

Key:
Assay type in all cases: cell-based
[1] = system: P. aeruginosa ATCC 27853 (wild-type/QC strain); test: broth microdilution MIC assay, P. aeruginosa ATCC 27853; settings: Pseudomonas aeruginosa, ATCC27853, P. aeruginosa 27853, read-out: P. aeruginosa 27853 MIC
Outline: (§1)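 Colonies from Mueller Hinton II agar → MH broth (divalent cations supplemented), 37 °C, 200 rpm, 3-5 h → OD600-adjusted to 5×10^5 CFU/mL final → 2-fold serial compound dilutions → 16-20 h, 37 °C → visual MIC.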

[2] = system: clinical isolate P. aeruginosa PA 8; test: broth microdilution MIC assay, P. aeruginosa PA 8; settings: Pseudomonas aeruginosa, P. aeruginosa PA8
Outline: as §1

[3] = system: S. aureus ATCC 33591 (methicillin-resistant); test: broth microdilution MIC assay, S. aureus ATCC 33591; settings: Staphylococcus aureus
Outline: as §1

[4] = system: E. coli ATCC 25922 (wild-type/QC strain); test: broth microdilution MIC assay, E. coli ATCC 25922; settings: Escherichia coli, ATCC25922, E. coli 25922, read-out: E. coli 25922 MIC
Outline: as §1

[5] = system: S. aureus ATCC 29213 (methicillin sensitive); test: broth microdilution MIC assay, S. aureus ATCC 29213; settings: Staphylococcus aureus, ATCC 29213 / MSSA; Table 3; S. aureus 29213 (MSSA); read-out: S. aureus 29213 (MSSA) MIC
Experimental: (§2) To determine the ability of test compounds to potentiate the inhibition of the growth of bacterial strains, classic cell-based broth microdilution MIC assays were employed. MIC assays are performed according to CLSI methods except where otherwise noted (CLSI, 2011 and CLSI, 2009). The reference strains S. aureus ATCC 29213 (methicillin sensitive), S. aureus ATCC 33591 (methicillin-resistant), E. coli ATCC 25922 (wild-type/QC strain), P. aeruginosa ATCC 27853 (wild-type/QC strain), and the clinical isolate P. aeruginosa PA 8 were used to determine the ability of the exemplary carbapenem compounds to inhibit bacterial growth. An expanded panel of methicillin resistance S. aureus (MRSA) and Pseudomonas was also used to determine the ability of exemplary carbapenem compounds to inhibit bacterial growth across a broader representation of those species. To determine activity in MRSA and in addition to S. aureus ATCC 33591, S. aureus USA 300, USA 400 and USA 600, some of the most common clones found to cause human infection, were also used. To further gauge the impact on the carbapenem compounds due to various resistance mechanisms in Pseudomonas, the following strains were included: P. aeruginosa 35151 (hyper-permeable strain), P. aeruginosa AmexAB-OprM (an efflux pump knockout), and P. aeruginosa PA 3 (a clinical isolate of reduced carbapenem susceptibility). Briefly, cryo-preserved bacterial cultures of clinical strains are streaked for isolation on appropriate agar medium, in this case Mueller Hinton II agar. Following incubation to allow formation of colonies, these plates are sealed with parafilm and stored refrigerated for up to two weeks. For preparation of assay inocula and to ensure low variability, at least 5 colonies are picked from the agar plates with an inoculating loop and aseptically transferred to a culture tube containing 3 mL of Mueller-Hinton Broth (supplemented with divalent cations to required levels based on Manufacturers' specification). The broth culture is grown for 3-5 hours at 37° C. with shaking at 200 rpm. Meanwhile, 2-fold serial dilutions of test compounds are conducted in a 96 well plate with a final volume of 75 μL per well at 2-fold the final desired concentration. After the dilution plates are set up the growing cultures are then diluted in a cuvette containing MH II broth and the optical density is measured at 600 nm. Inocula are diluted such that 75 μL of this culture in Mueller-Hinton Broth results in a starting bacterial concentration of 5×10^5 CFU/mL when added to the dilution plates. The plates are incubated 16-20 hours at 37° C. The MIC is read visually as the lowest concentration well with no bacterial growth.
(§3) Representative results are shown in Tables 3, 4, and 5 where A represents an MIC>32 μg/mL, B represents an MIC between 8 and 32 μg/mL inclusive, C represents an MIC between 1 and 4 μg/mL inclusive, and D represents an MIC of <1 μg/mL. NT=Not Tested.

S. aureus USA 300 = test: broth microdilution MIC assay, S. aureus USA 300; settings: Staphylococcus aureus; Table 4; S. aureus USA300; read-out: S. aureus USA300 MIC
Outline: as §1

S. aureus USA400 = test: broth microdilution MIC assay, S. aureus USA 400; settings: Staphylococcus aureus, Table 4
Experimental: as §2, §3

[6] = system: P. aeruginosa PA 3 (a clinical isolate of reduced carbapenem susceptibility); test: broth microdilution MIC assay, P. aeruginosa PA 3; settings: Pseudomonas aeruginosa; Table 5; P. aeruginosa PA3
Experimental: as §2, §3

[7] = system: P. aeruginosa ΔmexAB-OprM (an efflux pump knockout); test: broth microdilution MIC assay, P. aeruginosa ΔmexAB-OprM; settings: Pseudomonas aeruginosa, 20 h, read-out: P. aeruginosa ΔmexAB-OprM MIC
Outline: as §1

S. aureus USA600 = test: broth microdilution MIC assay, S. aureus USA 600; settings: Staphylococcus aureus; Table 4; S. aureus USA600; read-out: S. aureus USA600 MIC
Outline: as §1

[8] = system: P. aeruginosa 35151 (hyper-permeable strain); test: broth microdilution MIC assay, P. aeruginosa 35151; settings: Pseudomonas aeruginosa, read-out: P. aeruginosa 35151 MIC
Outline: as §1

[9] = ATCC 33591 / MRSA, Table 3, S. aureus 33591 (MRSA), read-out: S. aureus 33591 (MRSA) MIC
[10] = ATCC33591, Table 4, S. aureus 33591, read-out: S. aureus 33591 MIC

Compound | MIC ([1]; Table 3) [mg/L] | MIC ([2]; Table 3) [mg/L] | MIC [3, 9] [mg/L] | MIC ([4]; Table 3) [mg/L] | MIC [5] [mg/L] | MIC (S. aureus USA400) [mg/L] | MIC ([1]; Table 5) [mg/L] | MIC ([2]; Table 5) [mg/L] | MIC (S. aureus USA 300) [mg/L] | MIC [3, 10] [mg/L] | MIC ([4]; Table 4) [mg/L] | MIC [6] [mg/L] | MIC [7] [mg/L] | MIC (S. aureus USA600) [mg/L] | MIC [8] [mg/L]
C[C@@H](O)[C@H]1C(=O)N2C(C(=O)O)=C(S[C@@H]3CCN(C4CCC(N)(CN)CC4)C3)[C@H](C)[C@H]12 (stereo partly drawn) [Example 38, (4R,5S,6S)-3-(((R)-1-(4-amino-4-(aminomethyl)cyclohexyl)pyrrolidin-3-yl)thio)-6-((R)-1-hydroxyethyl)-4-methyl-7-oxo-1-azabicyclo[3.2.0]hept-2-ene-2-carboxylic acid] | 8 to 32 | 8 to 32 | 8 to 32 | < 1 |  | 1 to 4 | 8 to 32 | 8 to 32 | 8 to 32 | 8 to 32 | < 1 | 8 to 32 |  |  | 
C[C@@H](O)[C@H]1C(=O)N2C(C(=O)O)=C(S[C@@H]3CCCN(CC4CCNCC4)C3)[C@H](C)[C@H]12 [Example 43, (4R,5S,6S)-6-((R)-1-hydroxyethyl)-4-methyl-7-oxo-3-(((R)-1-(piperidin-4-ylmethyl)piperidin-3-yl)thio)-1-azabicyclo[3.2.0]hept-2-ene-2-carboxylic acid] |  |  |  |  |  |  | 8 to 32 | > 32 | 1 to 4 | 8 to 32 | < 1 | > 32 | 8 to 32 | 1 to 4 | < 1
C[C@@H](O)[C@H]1C(=O)N2C(C(=O)O)=C(S[C@@H]3CCN(C[C@@H]4CNCCO4)C3)[C@H](C)[C@H]12 [Example 49, (4R,5S,6S)-6-((R)-1-hydroxyethyl)-4-methyl-3-(((R)-1-(((S)-morpholin-2-yl)methyl)pyrrolidin-3-yl)thio)-7-oxo-1-azabicyclo[3.2.0]hept-2-ene-2-carboxylic acid] |  |  |  |  |  |  | 8 to 32 | 1 to 4 | 1 to 4 | 8 to 32 | < 1 | 8 to 32 | 1 to 4 | 1 to 4 | < 1
C[C@@H](O)[C@H]1C(=O)N2C(C(=O)O)=C(S[C@@H]3CCN(C[C@H]4CNCCO4)C3)[C@H](C)[C@H]12 [Example 50, (4R,5S,6S)-6-((R)-1-hydroxyethyl)-4-methyl-3-(((R)-1-(((R)-morpholin-2-yl)methyl)pyrrolidin-3-yl)thio)-7-oxo-1-azabicyclo[3.2.0]hept-2-ene-2-carboxylic acid] |  |  |  |  |  |  | 1 to 4 | 1 to 4 | 1 to 4 | 1 to 4 | < 1 | 8 to 32 | 1 to 4 | 1 to 4 | < 1
C[C@@H](O)[C@H]1C(=O)N2C(C(=O)O)=C(S[C@@H]3CCN(C[C@H]4CCNC4)C3)[C@H](C)[C@H]12 [Example 51, (4R,5S,6S)-6-((R)-1-hydroxyethyl)-4-methyl-7-oxo-3-(((R)-1-(((S)-pyrrolidin-3-yl)methyl)pyrrolidin-3-yl)thio)-1-azabicyclo[3.2.0]hept-2-ene-2-carboxylic acid] |  |  |  |  |  |  | 1 to 4 | 1 to 4 | 1 to 4 | 1 to 4 | < 1 | 8 to 32 | 1 to 4 | 1 to 4 | < 1
C[C@@H](O)[C@H]1C(=O)N2C(C(=O)O)=C(S[C@@H]3CCN(C[C@@H]4CCNC4)C3)[C@H](C)[C@H]12 [Example 53, (4R,5S,6S)-6-((R)-1-hydroxyethyl)-4-methyl-7-oxo-3-(((R)-1-(((R)-pyrrolidin-3-yl)methyl)pyrrolidin-3-yl)thio)-1-azabicyclo[3.2.0]hept-2-ene-2-carboxylic acid] |  |  |  |  |  |  | 1 to 4 | 1 to 4 | 1 to 4 | 1 to 4 | < 1 | 8 to 32 | 1 to 4 | 1 to 4 | < 1

Continued, in another order:

MIC ([1]; Table 3) [mg/L] | MIC ([2]; Table 3) [mg/L] | MIC [3, 9] [mg/L] | MIC ([4]; Table 3) [mg/L] | MIC [5] [mg/L] | MIC (S. aureus USA400) [mg/L] | Compound | MIC ([1]; Table 5) [mg/L] | MIC ([2]; Table 5) [mg/L] | MIC (S. aureus USA 300) [mg/L] | MIC [3, 10] [mg/L] | MIC ([4]; Table 4) [mg/L] | MIC [6] [mg/L] | MIC [7] [mg/L] | MIC (S. aureus USA600) [mg/L] | MIC [8] [mg/L]
1 to 4 | 1 to 4 | 8 to 32 | < 1 | 1 to 4 |  | CN[C@H]1CC[C@@H](CN2CC[C@@H](SC3=C(C(=O)O)N4C(=O)[C@H]([C@@H](C)O)[C@H]4[C@H]3C)C2)CC1 [Example 22, (4R,5S,6S)-6-((R)-1-hydroxyethyl)-4-methyl-3-(((R)-1-(((1s,4S)-4-(methylamino)cyclohexyl)methyl)pyrrolidin-3-yl)thio)-7-oxo-1-azabicyclo[3.2.0]hept-2-ene-2-carboxylic acid] |  |  |  |  |  |  |  |  | 
1 to 4 | 8 to 32 | 8 to 32 | < 1 | 1 to 4 |  | C[C@@H](O)[C@H]1C(=O)N2C(C(=O)O)=C(S[C@@H]3CCN([C@H]4CC[C@H](N)CC4)C3)[C@H](C)[C@H]12 [Example 24, (4R,5S,6S)-3-(((R)-1-((1s,4S)-4-aminocyclohexyl)pyrrolidin-3-yl)thio)-6-((R)-1-hydroxyethyl)-4-methyl-7-oxo-1-azabicyclo[3.2.0]hept-2-ene-2-carboxylic acid] |  |  |  |  |  |  |  |  | 
8 to 32 | 8 to 32 | > 32 | < 1 |  | 8 to 32 | C[C@@H](O)[C@H]1C(=O)N2C(C(=O)O)=C(S[C@@H]3CCN(CCCN)C3)[C@H](C)[C@H]12 [Example 36, (4R,5S,6S)-3-(((R)-1-(3-aminopropyl)pyrrolidin-3-yl)thio)-6-((R)-1-hydroxyethyl)-4-methyl-7-oxo-1-azabicyclo[3.2.0]hept-2-ene-2-carboxylic acid] | 8 to 32 | 8 to 32 | 8 to 32 | > 32 | < 1 | > 32 |  |  | 
1 to 4 | 8 to 32 | 8 to 32 | < 1 |  | 1 to 4 | CNCCCCN1CC[C@@H](SC2=C(C(=O)O)N3C(=O)[C@H]([C@@H](C)O)[C@H]3[C@H]2C)C1 [Example 37, (4R,5S,6S)-6-((R)-1-hydroxyethyl)-4-methyl-3-(((R)-1-(4-(methylamino)butyl)pyrrolidin-3-yl)thio)-7-oxo-1-azabicyclo[3.2.0]hept-2-ene-2-carboxylic acid] | 1 to 4 | 1 to 4 | 8 to 32 | 8 to 32 | < 1 | 8 to 32 |  |  | 
